Reference: article PMC103669 (BMC Pharmacology, 2002)

Columns and labels:
[1] = biological target: T1, opossum alpha-2C adrenergic receptor (Didelphis virginiana, UniProt P35405); assay: [3H]rauwolscine saturation binding, CHO membranes, filtration
T1 sequence (P35405 1-469): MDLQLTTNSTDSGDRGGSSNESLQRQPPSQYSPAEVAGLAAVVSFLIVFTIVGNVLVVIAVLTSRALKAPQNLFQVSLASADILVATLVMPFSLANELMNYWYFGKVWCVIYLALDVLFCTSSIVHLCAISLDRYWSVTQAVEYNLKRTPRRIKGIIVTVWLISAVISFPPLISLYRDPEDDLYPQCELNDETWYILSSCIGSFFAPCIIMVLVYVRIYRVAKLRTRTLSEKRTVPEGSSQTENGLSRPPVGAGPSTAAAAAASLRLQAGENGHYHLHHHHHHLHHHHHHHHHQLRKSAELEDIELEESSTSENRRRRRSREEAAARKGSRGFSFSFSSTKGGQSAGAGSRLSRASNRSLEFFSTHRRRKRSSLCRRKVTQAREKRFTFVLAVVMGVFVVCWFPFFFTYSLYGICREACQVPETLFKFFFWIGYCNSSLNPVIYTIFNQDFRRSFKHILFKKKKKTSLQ

[2] = biological target: opossum alpha-2C adrenergic receptor (Didelphis virginiana, UniProt P35405, S312A/T311V); assay: biochemical
opossum alpha-2C adrenergic receptor (Didelphis virginiana, UniProt P35405, S312A/T311V), sequence (P35405 whole entry T311V/S312A): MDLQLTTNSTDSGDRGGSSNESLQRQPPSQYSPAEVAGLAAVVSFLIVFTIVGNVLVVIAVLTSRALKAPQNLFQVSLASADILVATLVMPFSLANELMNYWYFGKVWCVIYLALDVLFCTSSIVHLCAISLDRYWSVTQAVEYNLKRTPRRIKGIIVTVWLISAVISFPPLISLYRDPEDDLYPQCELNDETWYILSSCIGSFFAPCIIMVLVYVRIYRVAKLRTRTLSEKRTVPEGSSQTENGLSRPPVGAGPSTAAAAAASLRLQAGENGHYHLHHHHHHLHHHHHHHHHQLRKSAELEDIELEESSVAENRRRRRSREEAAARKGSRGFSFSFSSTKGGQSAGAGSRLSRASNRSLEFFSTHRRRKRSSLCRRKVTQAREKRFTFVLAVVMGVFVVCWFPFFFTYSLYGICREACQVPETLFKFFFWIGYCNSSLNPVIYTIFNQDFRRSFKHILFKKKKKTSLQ

[3] = biological target: T2, opossum alpha-2C adrenergic receptor (Didelphis virginiana, UniProt P35405, S309A/S310A/S312A/T311V); assay: biochemical
T2 sequence (P35405 whole entry S309A/S310A/T311V/S312A): as the sequence (P35405 whole entry T311V/S312A) above, with S309A, S310A counted along it

[4] = biological target: T2, opossum alpha-2C adrenergic receptor; assay: biochemical; remark: listed apart in the source

Compound: COC(=O)[C@H]1[C@H]2C[C@H]3c4[nH]c5ccccc5c4CCN3C[C@H]2CC[C@@H]1O [[^3H]rauwolscine]
- Kd [1]: 0.113 ± 0.008 nM
- Kd [2]: 0.105 ± 0.005 nM
- Kd [3]: 0.118 ± 0.012 nM

Compound: NC[C@H](O)c1ccc(O)c(O)c1 [norepinephrine]
- Ki [4]: 71 ± 5 nM
